Measured values taken from US20090188860A1, “Use of antimicrobials in water technology” (priority 2006, published 2009).

Tested on: bacteria
Test: bacterial presence in permeate and on membrane of a reverse osmosis module in a desalination process
Conditions: cellulose acetate membranes cast with 0.5% and 2.0% by weight of the antimicrobial agent, after a one month period of operation
Method: Cellulose acetate membranes were cast from a dope solution containing about 20% of a cellulose di- and -tri-acetate mixture and 0.5% and 2.0% by weight, respectively, of the antimicrobial agent of formula (3). The solvent is a mixture of dioxane and acetone (2:1; w/w).
Further, the cellulose acetate membranes were used in a reverse osmosis module in a desalination process.
The reverse osmosis module was tested to determine any bacterial presence in the permeate.

Oc1cc(Cl)ccc1Oc1ccc(Cl)cc1 [formula (3), 4,4′-dichloro-2-hydroxydiphenylether]
bacterial presence in the permeate and on the membrane: no bacteria could be found
